# Experimental data from PubChem BioAssay AID1996.
# Conditions: buffer; pH 7.4; 200.0 µM
row,SMILES,solubility kinetic
1,Cn1c(CO)cnc1SCC(=O)c1ccc(F)cc1,> 42 µg/mL
2,Cc1nn(C)cc1CN(C)S(=O)(=O)c1cccc([N+](=O)[O-])c1,> 48.7 µg/mL
3,Cn1c(=O)cc(Nc2ccccc2)[nH]c1=O,10.3 µg/mL
4,COc1ccccc1CNc1ncnc2cc(OC)c(OC)cc12,13 µg/mL
5,CSc1ncc(CN2CCN(C(C)C)C(CCO)C2)cn1 (stereo not given),> 46.6 µg/mL
6,Cc1ccccc1NC1=NC2(CCCC2)N=C(N)N1,28.3 µg/mL
7,Cc1onc(-c2c(Cl)cccc2Cl)c1C(=O)Nc1ccc(Cl)cn1,3.9 µg/mL
8,O=C(CCl)N(CCCNC(=O)C(F)(F)F)c1ccc([N+](=O)[O-])cc1,> 55.2 µg/mL
9,N#CC(C#N)=C1C(=O)N(CCN2CCOCC2)c2ccccc21,> 46.3 µg/mL
10,Cc1cc(C)nc(N2CCCC(C(=O)NC3CC3)C2)n1 (stereo not given),> 41.2 µg/mL
11,CC(C)(C)c1ccc(C(=O)Nc2ccc(NC(=O)C(=O)O)cc2)o1,44.5 µg/mL
12,Cn1cc(SCC(=O)NC2CCCC2)c2ccccc21,> 43.3 µg/mL
13,Cc1cc(=O)oc2cc(NC(=O)Cc3ccccc3[N+](=O)[O-])ccc12,0.9 µg/mL
14,CC(=O)N/C(=C\c1ccc2c(c1)OCO2)C(=O)NC(C(=O)O)c1ccccc1 (stereo not given),> 57.4 µg/mL
15,CCN1CCN(c2ccc(NC(=O)c3ccco3)cc2)CC1,40.2 µg/mL
16,COc1ccc(OC)c2c1sc(=NC(=O)C1COc3ccccc3O1)n2C (stereo not given),< 0.4 µg/mL
17,Cc1ccc(OCCCn2c(=O)oc3ccccc32)cc1,2 µg/mL
18,COC(=O)c1c(C)oc(C)c1S(=O)(=O)NCc1ccc(Cl)cc1,5 µg/mL
19,COc1ccc(NS(=O)(=O)N2CCOCC2)cc1,> 40.8 µg/mL
20,COc1cccc(CC2(CO)CCN(S(=O)(=O)N(C)C)CC2)c1,> 51.4 µg/mL
21,CCOC(=O)N1CCN(CC(c2ccccc2)c2ccccc2)CC1,25.6 µg/mL
22,O=C(O)CN1C(=O)C(=O)N(Cc2cccc(F)c2)C1=O,> 42 µg/mL
23,CC1=CC(C)(C)NC(=S)N1c1ccc(C)cc1C,2.1 µg/mL
24,Br.COc1ccc(C2=CSC3=NCCN23)cc1Br,54.4 µg/mL

row,SMILES,solubility kinetic
1,O=[N+]([O-])c1ccc2c(c1)nc1n2CCN(CC2CCCO2)C1 (stereo not given),41.1 µg/mL
2,COc1cc(NC(=O)C2CC3CCC2C3)c(OC)cc1Cl (stereo not given),3.5 µg/mL
3,Cc1cc(=O)n(C)c2ccccc12,> 26 µg/mL
4,COc1ccccc1CN1CCCCC1C(=O)O (stereo not given),35.8 µg/mL
5,CCc1ccc2oc(C(=O)Nc3cccnc3)c(C)c2c1,1 µg/mL
6,CS(=O)(=O)N1CCN(c2nc3ccc(Cl)cc3s2)CC1,< 0.2 µg/mL
7,CCOc1cc(/C=C2/NC(=O)N(CC(=O)OC)C2=O)ccc1O,14.8 µg/mL
8,Cc1nonc1NC(=O)CSc1nnc(N)s1,> 40.8 µg/mL
9,CC(C)(C)NC(=O)COC(=O)c1ccc(Cl)cc1O,7.3 µg/mL
10,CC(NC(=S)Nc1ccc(F)cc1)c1ccccc1 (stereo not given),27.7 µg/mL
11,CCN(CC)c1ccc(N2C(=O)/C(=C/c3ccccn3)SC2=S)cc1,< 0.3 µg/mL
12,NC(N)=NCCCC(NC(=O)c1ccccc1)C(=O)Nc1ccc2ccccc2c1 (stereo not given),52.2 µg/mL
13,CCCCC(=O)Nc1ccc(C(=O)N(CC)c2ccccc2C)cc1,7.9 µg/mL
14,COC(=O)c1scc(C)c1NC(=O)CSc1ccc(Cl)cc1,1.3 µg/mL
15,CCOc1ccccc1NC(=O)CCCc1ccc(OC)c(C)c1,8.2 µg/mL
16,COc1ccc(C(=O)Nc2nccs2)cc1,8.1 µg/mL
17,CCc1ccc(NC(=O)Cn2cnc([N+](=O)[O-])c2)cc1,23 µg/mL
18,O=C(NCC(c1cccs1)N1CCOCC1)c1cnc(Cl)c(Cl)c1 (stereo not given),> 57.9 µg/mL
19,OCCCNc1c2ccccc2nc2ccccc12,> 37.8 µg/mL
20,CCn1c(=O)c(-c2nc3ccccc3[nH]2)c(O)c2ccccc21,< 0.2 µg/mL
21,CC(=O)c1cccc(NC(=O)C2C3CCC(C3)C2C(=O)O)c1 (stereo not given),42.9 µg/mL
22,Cc1ccc(NC(=O)C(Cc2ccccc2)n2cccc2)cc1 (stereo not given),1.9 µg/mL
23,COc1ccc(C)cc1NC(=O)CCCN1C(=O)CN(C)C1=O,> 47.9 µg/mL
24,O=C(N/N=C\c1cccnc1)c1ccccc1O,> 36.2 µg/mL

row,SMILES,solubility kinetic
1,COc1cccc2[nH]c3c(=O)[nH]cnc3c12,> 32.3 µg/mL
2,CN1C(=O)OC(C)(C)C1=O,< 0.3 µg/mL
3,CCCOc1ccc(CC(=O)NCCc2ccccc2)cc1OC,20.3 µg/mL
4,CC(C)c1ccc(C(C)NC(=S)NC2CCCCC2)cc1 (stereo not given),1.9 µg/mL
5,Cc1ccc(C23CC4CC(CC(C(=O)NC(C)C)(C4)C2)C3)cc1,< 0.7 µg/mL
6,CC(C)NC(=O)CCCn1cc([N+](=O)[O-])cn1,> 36 µg/mL
7,COc1cccc(NC(=O)COc2ccc3c(c2)CCC3)c1,1.3 µg/mL
8,CCOc1ccc(N2CC(C(=O)Nc3ccncc3)CC2=O)cc1 (stereo not given),> 48.8 µg/mL
9,Cc1ccc(C(C)NC(=O)c2c(-c3ccccc3)noc2C)cc1C (stereo not given),2.4 µg/mL
10,CCOc1ccc(NC(=O)CN2C(=O)NC(CCc3ccccc3)C2=O)cc1OCC (stereo not given),8.8 µg/mL
11,CCOc1ncccc1C(=O)OCC(=O)NCc1ccc(C(=O)OC)cc1,> 55.9 µg/mL
12,CC(C)c1ccc(OCC(=O)N2CCCN(C)CC2)cc1,> 43.6 µg/mL
13,O=[N+]([O-])c1ccc(N2CCN(c3ccc(F)cc3)CC2)nc1,0.3 µg/mL
14,Cc1c(C=O)c2ccccc2n1Cc1ccccc1,2.6 µg/mL
15,Cc1ccc(NC(=S)Nc2ccc(F)cc2)cc1,11.1 µg/mL
16,Cn1ccc(C(=O)OCC(=O)Nc2ccccc2Cl)n1,> 44.1 µg/mL
17,O=C1CCC(C(=O)Nc2ccccc2N2CCOCC2)=NN1,> 45.3 µg/mL
18,COc1cccc(/C=C2\N=C(C3CCCCC3)OC2=O)c1OC,16.4 µg/mL
19,CN(C)S(=O)(=O)c1ccc(C(=O)OC2CCOC2=O)cc1 (stereo not given),> 47 µg/mL
20,CC(C)CCN(C(=S)Nc1cccc(F)c1)C1CCN(C(C)C)CC1,48.2 µg/mL
21,O=C(Oc1c(-c2ccccc2)c(=O)n2c3c(cccc13)CC2)c1ccc(Cl)cc1,< 0.9 µg/mL
22,N#CC(C#N)=C1NC2(CCCCC2)Cc2ccccc21,0.8 µg/mL
23,C=C(C)C(=O)Nc1ccc2c(c1)OCCOCCOCCO2,35.2 µg/mL
24,O=C(CN1CCOCC1)Nc1nc2ccc(Cl)cc2s1,45.8 µg/mL

row,SMILES,solubility kinetic
1,Cc1cc(C)c(S(=O)(=O)NCc2csc(C)n2)c(C)c1,> 46.6 µg/mL
2,CNC(=S)Nc1cccc(S(=O)(=O)NC2=NCCC2)c1,45.7 µg/mL
3,O=[N+]([O-])c1ccc(S(=O)(=O)Nc2ccccn2)cc1,> 41.9 µg/mL
4,CCCc1nnc(NC(=O)CCC(=O)NC2CC2)s1,> 42.4 µg/mL
5,CC(=O)c1c(C)[nH]c(C(=O)NCC2CCCCC2)c1C,23.4 µg/mL
6,O=C(COc1ccccc1)NCC(=O)NC1CCCCC1,> 43.6 µg/mL
7,CCOc1ccc(C(=O)OCC(=O)NC2CCCC2)cc1OCC,17.7 µg/mL
8,O=C(Nc1ccc2c(c1)OCCO2)c1cccc(Cl)c1,36.9 µg/mL
9,COC(=O)c1ccc(NC(=O)CCOc2ccccc2)cc1,4.5 µg/mL
10,O=C(c1cccs1)N1CCN(S(=O)(=O)c2cccs2)CC1,47.3 µg/mL
11,COc1ccc(CCNS(=O)(=O)c2ccc(Cl)cc2)cc1OC,> 53.4 µg/mL
12,O=C1CCC(C(=O)N2CCCC2)CN1CCc1cccc(F)c1 (stereo not given),> 47.8 µg/mL
13,N#Cc1ccccc1S(=O)(=O)Nc1ccc2c(c1)C(=O)OC2,43.4 µg/mL
14,Cc1cc(C)cc(NC(=O)COC(=O)c2ccc3c(c2)OCCO3)c1,2.3 µg/mL
15,N#CC1(C#N)C(C(=O)C23CC4CC(CC(C4)C2)C3)C12CCOCC2 (stereo not given),3.3 µg/mL
16,O=C(/C=C/c1ccc(S(=O)(=O)N2CCOCC2)cc1)NC(CO)C(O)c1ccc([N+](=O)[O-])cc1 (stereo not given),> 73.7 µg/mL
17,CCCC(=O)N1CCN(Cc2nc3cc([N+](=O)[O-])ccc3n2C)CC1,> 51.8 µg/mL
18,O=C1CN(c2ccc(F)cc2)C(=S)N1c1ccccc1,8.5 µg/mL
19,CC1(C)Cc2cccc(C(=O)Nc3ccncc3)c2O1,34.8 µg/mL
20,O=C(C(=O)N1CCCCC1)c1c(-c2ccccc2)[nH]c2ccccc12,> 49.9 µg/mL
21,Oc1ccc(-c2csc(Nc3ccccn3)n2)c(O)c1,4.4 µg/mL
22,CCCN(CCC)C(=O)c1cc2c(=O)n3cccc(C)c3nc2s1,34.7 µg/mL
23,O=C(OCC(=O)N1CCC(Cc2ccccc2)CC1)c1ccccc1O,2.2 µg/mL
24,COc1cc(/C=N/O)ccc1Oc1cnccn1,> 36.8 µg/mL

row,SMILES,solubility kinetic
1,CCOC(=O)C(=CNc1ccc(C(F)(F)F)cc1)C(=O)OCC,2.7 µg/mL
2,Cc1csc(NC(=O)c2ccncc2)n1,17.9 µg/mL
3,CC(C)C(C(=O)Nc1ccncc1)c1ccc(Cl)cc1 (stereo not given),> 43.3 µg/mL
4,Cc1cc(C)c(C)c(S(=O)(=O)N(C)CCc2ccccn2)c1C,> 49.9 µg/mL
5,Nc1ccccc1N=c1ssnc1Cl,> 36.6 µg/mL
6,O=C(CCN1C(=O)c2ccncc2C1=O)Nc1cc(F)ccc1F,41.7 µg/mL
7,CC1CN(Cc2ccccc2)c2nc3c(c(=O)[nH]c(=O)n3C)n2C1 (stereo not given),> 48.8 µg/mL
8,Cc1ccccc1C(=O)NC1CCCCCCC1,30.2 µg/mL
9,Cc1sc(NC(=O)c2cccnc2)nc1-c1ccccc1,1.1 µg/mL
10,Cc1ccc(CNCc2ccco2)cc1.O=C(O)C(=O)O,> 43.7 µg/mL
11,COCCCNC1CS(=O)(=O)CC1O.Cl (stereo not given),> 39 µg/mL
12,Cc1ccc(S(=O)(=O)N2CCOCC2)cc1C(=O)Nc1nc(-c2ccccn2)cs1,23.9 µg/mL
13,O=C(COC(=O)c1c[nH]c2ccccc12)NC1CCCC1,> 42.9 µg/mL
14,CCN1CNC(=S)N(c2ccccc2C)C1,> 35.3 µg/mL
15,Nc1c(C(=O)c2ccccc2)oc2ccc([N+](=O)[O-])cc12,1.3 µg/mL
16,NS(=O)(=O)c1ccc(C(=O)Nc2ccc(-c3nc4cccnc4s3)cc2)cc1,2.5 µg/mL
17,Cc1csc2c(N(C)CCO)ncnc12,> 33.5 µg/mL
18,Cc1ccc2nc(Nc3ccccc3)c(C=O)c(=O)n2c1,1.5 µg/mL
19,COc1cc(/C=N/NC(=O)c2ccccc2)ccc1O,> 40.5 µg/mL
20,Cc1ccc(S(=O)(=O)N(C)C)cc1NC(=O)C(C)OC(=O)c1cc[n+]([O-])cc1 (stereo not given),> 61.1 µg/mL
21,O=C(Nc1cccc(S(=O)(=O)NC2=NCCC2)c1)c1ccc(C(F)(F)F)cc1,7.3 µg/mL
22,O=C1c2ccc([N+](=O)[O-])cc2C(=O)N1c1ccc(Cl)cn1,> 45.5 µg/mL
23,O=C1C(=O)N(CC2COc3ccccc3O2)c2ccccc21 (stereo not given),40.6 µg/mL
24,O=C1NC(=O)/C(=C\c2ccc(OCc3ccccc3)cc2)S1,< 0.7 µg/mL
